Results from the supplement of paper PMC10307832.

Assays:
Assay in all cases: relative viability (nuclei count vs DMSO), 5 days (fraction); higher = more cells survive
Carboplatin + Trametinib = compound: C1CC(C1)(C(=O)O)C(=O)O.[NH2-].[NH2-].[Pt+2] [Carboplatin] + CC(=O)Nc1cccc(-n2c(=O)n(C3CC3)c(=O)c3c(Nc4ccc(I)cc4F)n(C)c(=O)c(C)c32)c1 [Trametinib] (partner 0.02 µM)
Method in brief: (§1)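 A single step with final 0.05% Triton X-100, 1% formaldehyde and 1 ug/ml Hoechst fixed the cells and stained nuclei 5 days after treatment. Lung cancer cell lines in 1536-well plates had been treated by pin tool the day after seeding with one drug alone or a fixed anchor-drug dose plus five library-drug doses (not always all listed) in √10 steps, and nuclei were counted on 4× images. Relative viability is the ratio of nuclei in treated wells to nuclei in vehicle wells, taken as the median of duplicate plates.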

MLN4924 + AZD7762 = compound: NS(=O)(=O)OC[C@@H]1C[C@@H](n2ccc3c(N[C@H]4CCc5ccccc54)ncnc32)C[C@@H]1O [MLN4924] + NC(=O)Nc1cc(-c2cccc(F)c2)sc1C(=O)N[C@H]1CCCNC1 [AZD7762] (partner 0.2 µM)
Method in brief: as §1

GSK126 + Trametinib = compound: CC[C@H](C)N1C=C(C2=C(C=C(C=C21)C3=CN=C(C=C3)N4CCNCC4)C(=O)NCC5=C(C=C(NC5=O)C)C)C [GSK126] + CC(=O)Nc1cccc(-n2c(=O)n(C3CC3)c(=O)c3c(Nc4ccc(I)cc4F)n(C)c(=O)c(C)c32)c1 [Trametinib] (partner 0.02 µM)
Method in brief: as §1

MLN4924 + Olaparib = compound: NS(=O)(=O)OC[C@@H]1C[C@@H](n2ccc3c(N[C@H]4CCc5ccccc54)ncnc32)C[C@@H]1O [MLN4924] + O=C(c1cc(Cc2n[nH]c(=O)c3ccccc23)ccc1F)N1CCN(C(=O)C2CC2)CC1 [Olaparib] (partner 8 µM)
Method in brief: as §1

Cell Line | relative viability (Carboplatin + Trametinib; first compound 0.08 µM) | relative viability (Carboplatin + Trametinib; first compound 0.253 µM) | relative viability (Carboplatin + Trametinib; first compound 0.8 µM) | relative viability (Carboplatin + Trametinib; first compound 2.53 µM) | relative viability (Carboplatin + Trametinib; first compound 8 µM) | relative viability (MLN4924 + AZD7762; first compound 0.04 µM) | relative viability (MLN4924 + AZD7762; first compound 0.1265 µM) | relative viability (MLN4924 + AZD7762; first compound 0.4 µM) | relative viability (MLN4924 + AZD7762; first compound 1.265 µM) | relative viability (MLN4924 + AZD7762; first compound 4 µM) | relative viability (GSK126 + Trametinib; first compound 0.08 µM) | relative viability (GSK126 + Trametinib; first compound 0.253 µM) | relative viability (GSK126 + Trametinib; first compound 0.8 µM) | relative viability (GSK126 + Trametinib; first compound 2.53 µM) | relative viability (GSK126 + Trametinib; first compound 8 µM) | relative viability (MLN4924 + Olaparib; first compound 0.04 µM) | relative viability (MLN4924 + Olaparib; first compound 0.1265 µM) | relative viability (MLN4924 + Olaparib; first compound 0.4 µM) | relative viability (MLN4924 + Olaparib; first compound 1.265 µM) | relative viability (MLN4924 + Olaparib; first compound 4 µM)
NCI-H2342 | 0.825 | 0.891 | 0.903 | 0.924 | 0.81 | 0.412 | 0.568 | 0.551 | 0.523 | 0.452 | 0.786 | 0.739 | 0.815 | 0.869 | 0.984 | 0.432 | 0.425 | 0.381 | 0.391 | 0.352
NCI-H2347 | 0.319 | 0.271 | 0.244 | 0.287 | 0.265 | 0.904 | 0.834 | 0.536 | 0.252 | 0.242 | 0.289 | 0.276 | 0.261 | 0.303 | 0.298 | 0.666 | 0.605 | 0.512 | 0.4 | 0.376
NCI-H2405 | 0.752 | 0.661 | 0.635 | 0.633 | 0.606 | 1.05 | 0.964 | 0.557 | 0.225 | 0.245 | 0.817 | 0.587 | 0.611 | 0.614 | 0.636 | 0.748 | 0.524 | 0.323 | 0.239 | 0.231
NCI-H3122 | 0.227 | 0.259 | 0.251 | 0.251 | 0.226 | 0.916 | 0.485 | 0.229 | 0.132 | 0.105 | 0.198 | 0.186 | 0.216 | 0.22 | 0.245 | 0.535 | 0.235 | 0.251 | 0.112 | 0.0876
PC-3 [JPC-3] | 0.781 | 0.67 | 0.628 | 0.616 | 0.65 | 0.854 | 0.964 | 0.736 | 0.328 | 0.334 | 0.763 | 0.694 | 0.693 | 0.66 | 0.634 | 1.16 | 1.05 | 0.298 | 0.436 | 0.452
PC-14 | 0.785 | 0.751 | 0.692 | 0.407 | 0.14 | 0.335 | 0.405 | 0.347 | 0.166 | 0.127 | 0.912 | 0.694 | 0.708 | 0.662 | 0.699 | 0.188 | 0.129 | 0.0764 | 0.0624 | 0.0504
RERF-LC-KJ | 0.863 | 0.876 | 0.785 | 0.696 | 0.53 | 0.941 | 0.738 | 0.256 | 0.182 | 0.253 | 0.902 | 0.981 | 0.733 | 0.841 | 0.825 | 0.624 | 0.344 | 0.221 | 0.206 | 0.218
SW 900 | 0.794 | 0.904 | 1.07 | 0.7 | 0.759 | – | 0.806 | 0.467 | 0.331 | 0.259 | 0.801 | 0.507 | 0.86 | 0.901 | 0.615 | – | 0.594 | 0.429 | 0.233 | 0.228
